Where a name gives a salt, the structure may show the parent alone.
Tests used:
[1] = tested on: collagen-induced platelet aggregation; assay: Oral (IG) administration of compound (ester) to dogs; inhibition of collagen-induced platelet aggregation; assay type: in vivo; conditions: dog
Procedure: Oral Administration of Compound
Dogs (n=2) were weighed and two control blood samples (2×2 ml) were drawn via venipuncture from the cephalic vein. Blood was centrifuged at 266×g for 6 minutes to prepare PRP. Percent aggregation prior to compound administration (baseline) was established by adding 50 μl of collagen to 450 μl of PRP and measuring aggregation for 4 minutes. Compound (in the ester form) was administered orally (single dose) by gelatin capsule. Blood samples (2×2 ml) were drawn at selected time intervals after dosing. Inhibition of collagen-induced platelet aggregation was determined by comparing aggregation responses in the samples containing compound with the responses of samples before compound administration (baseline). The remaining blood was centrifuged for 2 minutes at 12,000 ×g to prepare PPP for determination of concentration of compound in the plasma samples by bioassay (see below).

[2] = tested on: Platelet aggregation in PRP (dog); assay: In-Vitro Platelet Aggregation in PRP (Dog), collagen-induced; assay type: cell-based; conditions: collagen 33 μg/ml final
Procedure: In-Vitro Platelet Aggregation in PRP--(Dog)
Healthy male or female dogs were fasted for 8 hours prior to drawing blood; then 60 ml whole blood was collected using a butterfly needle and 60 cc plastic syringe with 6 ml of 0,129 M buffered sodium citrate (3.8%) (drawn from a minimum of 3 dogs and blood was pooled). The syringe was rotated carefully as blood was drawn to mix the citrate. Platelet-rich plasma (PRP) was prepared by centrifugation at 975×g for 3.17 minutes at room temperature, allowing the centrifuge to coast to a stop without braking. The PRP was removed from the blood with a plastic pipette and placed in a plastic capped 50 ml Corning conical sterile centrifuge tube which was held at room temperature. Platelet poor plasma (PPP) was prepared by centrifuging the remaining blood at 2000×g for 15 minutes at room temperature allowing the centrifuge to coast to a stop without braking. The platelet count in the PRP was routinely 2-4×10^8 platelets per ml. 400 μl of the PRP preparation and 50 μl of the compound to be tested or saline were preincubated for 2 minutes at 37° C. in a BioData aggregometer (BioData, Horsham, Pa.). 50 μl of collagen (diluted 1:3 with 5% dextrose and water solution, 33 μg/ml final concentration, equine tendon, Chronolog, Havertown, Pa.) was added to the cuvettes and the aggregation was monitored for 3 minutes. All compounds are tested in duplicate. Results are calculated as follows: [formula]
The assay results for the compounds of the present invention and their median inhibitory concentrations (IC50) are recorded in Tables I-III.

[3] = tested on: collagen-induced platelet aggregation; assay: I.V. compound (acid) administration to dogs; inhibition of collagen-induced platelet aggregation; assay type: in vivo; conditions: dog, 1 mg/kg
Procedure: I.V. Compound Administration
Dogs were placed in a dog sling. Two control blood samples (2×2 ml) were collected and PRP was prepared and percent aggregation was determined to establish a baseline as stated above. Compound (in the acid form) in 4 ml of saline/water (50:50) was injected into the cephalic vein over one minute with a syringe connected to a 23 g butterfly infusion set. Blood samples (2×2 ml) were drawn at 5 minute intervals after dosing for the first 15 minutes, 15 minute intervals until 60 minutes, 30 minute intervals until 2 hours, hourly until ~6 hours, again at 24 hours or until baseline aggregation was reached. PRP was prepared for aggregation studies as previously described. PPP was prepared for determination of concentration of compound by bioassay (see below).

[4] = Canis lupus familiaris, Platelet

Compound: CCOC(=O)CCNC(=O)CN1CCN(c2ccc(C(=N)N)cc2)C1=O [Example 8, Ethyl 3-[[[[1-[4-(aminoiminomethyl)phenyl]-4,5-dihydro-2(3H)-oxo-1H-imidazol-3-yl]methyl]carbonyl]amino]propanoate]
- Hours duration (IG - ester) ([1]; 2.5 mg/kg): 3.1 h
- % inhibition (IG - ester) ([1]; 2.5 mg/kg, 3.1 hr): 16%

Compound: N=C(N)c1ccc(N2CCN(CC(=O)NCCCC(=O)O)C2=O)cc1 [Example 7, 4-[[[[1-[4-(Aminoiminomethyl)phenyl]-4,5-dihydro-2(3H)-oxo-1H-imidazol-3-yl]methyl]carbonyl]amino]butanoic acid]
- IC50 [2, 4]: 1100 nM

Compound: C=CC(CC(=O)O)NC(=O)Cn1ccn(-c2ccc(C(=N)N)cc2)c1=O (stereo in doubt) [Example 12, 3-[[[[1-[4-(aminoiminomethyl)phenyl]-2(3H)-oxo-1H-imidazol-3-yl]methyl]carbonyl]amino]-4(3S)-pentenoic acid trifluoroacetate]
- IC50 [2, 4]: 650 nM
- Hours duration (IV - acid) [3]: 6 h
- % inhibition (IV - acid) ([3]; 6 hr): 54%

Compound: N=C(N)c1ccc(-n2ccn(CC(=O)NC(CC(=O)O)c3ccoc3)c2=O)cc1 (stereo not drawn) [Example 20, β-[[[[1-[4-(aminoiminomethyl)phenyl]-2(3H)-oxo-1H-imidazol-3-yl]methyl]carbonyl]amino]-3-furanpropanoic acid trifluoroacetate]
- IC50 [2, 4]: 700 nM

Compound: COC(=O)CC(CC(=O)O)NC(=O)CN1CCN(c2ccc(C(=N)N)cc2)C1=O (racemic) [Example 14, (±)Methylhydrogen3-[[[[1-[4-(aminoiminomethyl)phenyl]-4,5-dihydro-2(3H)-oxo-1H-imidazol-3-yl]methyl]carbonyl]amino]pentanedioate]
- IC50 [2, 4]: 180 nM

Compound: N=C(N)c1ccc(N2CCCN(CC(=O)NCCC(=O)O)C2=O)cc1 [Example 26, 3-[[[[1-[4-(Aminoiminomethyl)phenyl]-1,4,5,6-tetrahydro-2(3H)-oxopyrimidin-3-yl]methyl]carbonyl]amino]propanoic acid, trifluoroacetate]
- inhibition at 1 µM [2, 4]: 18%

Compound: CC(CC(=O)O)NC(=O)Cn1ccn(-c2ccc(C(=N)N)cc2)c1=O (stereo not shown) [Example 10, 3-[[[1-[4-(aminoiminomethyl)phenyl]-2(3H)-oxo-1H-imidazol-3-yl]methyl]carbonyl]amino]butanoic acid trifluoroacetate]
- IC50 [2, 4]: 620 nM

Compound: COC(=O)CC(CC(=O)OC)NC(=O)CN1CCN(c2ccc(C(=N)N)cc2)C1=O [Example 13, Dimethyl 3-[[[[1-[4-(aminoiminomethyl)phenyl]-4,5-dihydro-2(3H)-oxo-1H-imidazol-3-yl]methyl]carbonyl]amino]pentanedioate]
- Hours duration (IG - ester) ([1]; 5 mg/kg): 24 h
- % inhibition (IG - ester) ([1]; 5 mg/kg, 24 hr): 14%
- Max % inhibition (IG - ester) ([1]; 5 mg/kg, max @ 6 hours): 63%

Compound: N=C(N)c1ccc(-n2ccn(CC(=O)NCCC(=O)O)c2=O)cc1 [Example 3, 3-[[[[1-[4-(aminoiminomethyl)phenyl]-2(3H)-oxo-1H-imidazol-3-yl]methyl]carbonyl]amino]propanoic acid, trifluoroacetate]
- IC50 [2, 4]: 2000 nM

Compound: CCOC(=O)C[C@H](NC(=O)CN1CCN(c2ccc(C(=N)N)cc2)C1=O)c1cccnc1 [Example 23, Ethyl β-[[[[1-[4-(aminoiminomethyl]phenyl]-4,5-dihydro-2(3H)-oxo-1H-imidazol-3-yl]methyl]carbonyl]amino]-3(S)-pyridinepropanoate]
- Hours duration (IG - ester) ([1]; 5 mg/kg): 24 h
- % inhibition (IG - ester) ([1]; 5 mg/kg, 24 hr): 88%

Compound: β-[[[[4-(aminoiminomethyl)phenyl]-4,5-dihydro-2(3H)-oxo-1H-imidazol-3- yl]methyl]carbonyl]amino]-3-pyridinepropanoic acid [Example 24]
- IC50 [2]: 80 nM
- Hours duration (IV - acid) [3]: 27 h
- % inhibition (IV - acid) ([3]; 27 hr): 98%

Compound: N=C(N)c1ccc(-n2ccn(CCC(=O)NCCC(=O)O)c2=O)cc1 [Example 16, 3-[[[[1-[4-(aminoiminomethyl)phenyl]-2(3H)-oxo-1H-imidazol-3-yl]ethyl]carbonyl]amino]propanoic acid]
- IC50 [2, 4]: 340 nM

Compound: CCOC(=O)CC(C)NC(=O)Cn1ccn(-c2ccc(C(=N)N)cc2)c1=O (stereo not shown) [Example 9, Ethyl 3-[[[[1-[4-(aminoiminomethyl)phenyl]-2(3H)-oxo-1H-imidazol-3-yl]methyl]carbonyl]amino]butanoate trifluoroacetate]
- Hours duration (IG - ester) ([1]; 10 mg/kg): 4.5 h
- % inhibition (IG - ester) ([1]; 10 mg/kg, 4.5 hr): 33%

Compound: N=C(N)c1ccc(N2CCN(CC(=O)NCCC(=O)O)C2=O)cc1 [Example 5, 3-[[[[1-[4-(aminoiminomethyl)phenyl]-4,5-dihydro-2(3H]-oxo-1H-imidazol-3-yl]methyl]carbonyl]amino]propanoic acid, trifluoroacetate]
- IC50 [2, 4]: 190 nM
- Hours duration (IV - acid) [3]: 24 h
- % inhibition (IV - acid) ([3]; 24 hr): 31%

Compound: C=CC(CC(=O)OCC)NC(=O)Cn1ccn(-c2ccc(C(=N)N)cc2)c1=O (stereo in doubt) [Example 11, Ethyl 3-[[[[1-[4-(aminoiminomethyl)phenyl]-2(3H)-oxo-1H-imidazol-3-yl]methyl]carbonyl]amino]pent-4(3S)-enoate trifluoroacetate]
- Hours duration (IG - ester) ([1]; 5 mg/kg): 24 h
- % inhibition (IG - ester) ([1]; 5 mg/kg, 24 hr): 35%
- Max % inhibition (IG - ester) ([1]; 5 mg/kg, max @ 3 hours): 71%

Compound: CCOC(=O)CC(NC(=O)Cn1ccn(-c2ccc(C(=N)N)cc2)c1=O)c1ccoc1 (stereo not drawn) [Example 19, Ethyl β-[[[[1-[4-(aminoiminomethyl)phenyl]-2(3H)-oxo-1H-imidazol-3-yl]-methyl]carbonyl]amino]-3-furanpropanoate trifluoroacetate]
- Hours duration (IG - ester) ([1]; 10 mg/kg): 24 h
- % inhibition (IG - ester) ([1]; 10 mg/kg, 24 hr): 28%
- Max % inhibition (IG - ester) ([1]; 10 mg/kg, max @ 6 hours): 85%

Compound: N=C(N)c1ccc(-n2ccn(CC(=O)NCCCC(=O)O)c2=O)cc1 [Example 4, 4-[[[[1-[4-(aminoiminomethyl)phenyl]-2(3H)-oxo-1H-imidazol-3-yl]methyl]carbonyl]amino]butanoic acid trifluoroacetate]
- inhibition at 1 µM [2, 4]: 0%

Compound: N=C(N)c1ccc(-n2ccn(CC(=O)NC(CC(=O)O)c3cccnc3)c2=O)cc1 (stereo not drawn) [Example 22, β-[[[[1-[4-(aminoiminomethyl)phenyl]-2(3H)-oxo-1H-imidazol-3-yl]methyl]carbonyl]amino]-3-pyridinepropanoic acid]
- IC50 [2, 4]: 170 nM
- Hours duration (IV - acid) [3]: 24 h
- % inhibition (IV - acid) ([3]; 24 hr): 40%

Compound: CCOC(=O)CC(NC(=O)Cn1ccn(-c2ccc(C(=N)N)cc2)c1=O)c1cccnc1 (stereo not drawn) [Example 21, Ethyl β-[[[[1-[4-(aminoiminomethyl)phenyl]-2(3H)-oxo-1H-imidazol-3-yl]methyl]carbonyl]amino]-3-pyridinepropanoate]
- Hours duration (IG - ester) ([1]; 10 mg/kg): 24 h
- % inhibition (IG - ester) ([1]; 10 mg/kg, 24 hr): 43%

— patent US5430043A, “Platelet aggregation inhibitors” (G. D. Searle & Co., priority 1993, dated 1995)
